This experiment relates to Sonic hedgehog signaling. Kind of experiment: Clonal NIH-3T3 line with stably integrated Shh-responsive luciferase reporter (Shh-LIGHT/Shh-LIGHT2), inhibition of Sonic hedgehog induction. The class given is cell-based, mouse. The note with it: for improvement of inhibitory activity by oxidation of the hydroxyl group to a ketone: versus the corresponding 3-hydroxyl compound (18, 20, 22, 33, 40, 50); for effect of N-alkyl modification on ability to block Shh signaling / effect of addition on inhibitory activity: SAR statement, relative to cyclopamine. An excerpt: FIG. 2 relates to a sensitive assay for Shh signaling in NIH-3T3 cells. (A) Purification of cholesterol- and palmitate-modified mouse Sonic hedgehog signaling domain ShhNp. Detergent-insoluble proteolipid complexes were isolated from 293 cells expressing full-length Shh (M. K. Cooper, J. A. Porter, K. E. Young, P. A. Beachy, Science 280, 1603 (1998)), and ShhNp was purified to apparent homogeneity by immunoaffinity chromatography. […] We therefore used the detergent insolubility of cholesterol-modified ShhN and affinity chromatography to purify the processed ShhN protein (ShhNp) from a human 293 cell line engineered to express the full length mouse Shh construct. Detergent-insoluble complexes (DIGs) were isolated as described by Brown and Rose (1992), with the following modifications. Cells from a 150 mm dish were lysed and collected in 2 mL of lysis solution (10 mM NaHPO4, pH 6.5, 150 mM NaCl, 0.5 mM PMSF, 1% Triton X-100, 2 μg/ml Pepstatin A, 10 μg/ml leupeptin, 5 μg/ml aprotinin, 2 μg/ml E64) at 4° C. […] Low-density, flocculent material was collected (from original position of 18.125% step), diluted 5-fold in 10 mM NaHPO4, pH 6.5, 150 mM NaCl and harvested by centrifugation at 20,000×g for 15 min (all at 4° C.). […] Mass standards migrated as indicated. […] NIH-3T3 cells cotransfected with Gli-luc reporter and TK promoter-driven Renilla luciferase control were treated with the indicated concentrations of ShhNp for 2 days. Confluent cultures of NIH-3T3 cells were plated at 1:6 dilution to 24 or 96-well plates. On the following day, the cells were transfected with renilla luciferase (pRL-TK or pRL-SV40; Clontech) or β-galactosidase transfection control (10% w/w DNA), Gli-Luc reporter (40%) and the constructs indicated (50%) using Fugene 6 (Roche) transfection reagent (250 ng (24 well plate) or 100 ng (96 well plate) DNA/well, 3:1 ratio (v/w) of reagent to DNA). […] Firefly and Renilla luciferase and β-galactosidase activities were assayed from the cell lysates by luminometry using dual luciferase (Promega) and Galacto-Light (Tropix) kits, respectively. Luciferase activities are normalized relative to control; a representative experiment is shown. […] Error bars indicate one standard deviation. […] Cultures of Shh-LIGHT (open boxes) or SmoA1-LIGHT (filled diamonds) cells were plated to 96-well plates in a series of twofold dilutions. The NIH-3T3 cell clone Shh-LIGHT and Shh-LIGHT2 stably incorporating the Gli-luc reporter and TK-renilla vectors were established by cotransfection with a vector encoding G418 resistance (pSV-Neo), followed by selection with G418 and cell cloning. Subsequently, a clonal subline of Shh-LIGHT expressing activated Smo (SmoA1-LIGHT) was established using an expression vector that allows hygromycin selection (pcDNA3.1+ hygro; Invitrogen). […] The Shh-LIGHT cells were treated with 4 nM ShhNp, and Gli-luciferase reporter activity was assayed after 24 h. Fold induction of the reporter (% of maximum is relative to equally dense Shh-LIGHT control culture) and cell densities (% of maximum Renilla luciferase activity) were measured at the end of the experiment. Error bars indicate one standard deviation (quadruplicate wells).
Relative reporter activity is normalized to maximum. […] Error bars in A and B indicate one standard deviation.

The mark [1] stands for this setting: Mus musculus, NIH3T3, concentration for 50% inhibition of Sonic hedgehog induction, Table II.
Where [2] appears, read: concentration for 50% inhibition of Sonic hedgehog induction, Table II.

Bounds are passed on as bounds.

Regarding `CC1=C2C[C@H]3[C@@H](CC=C4C[C@@H](OC(=O)NCCNC(=O)CCc5ccccc5)CC[C@@]43C)[C@@H]2CC[C@]12O[C@@H]1C[C@H](C)CN[C@H]1[C@H]2C` [Compound 8, 3O-dihydrocinnamoylethylenediaminecarbamoyl cyclopamine], the “IC50 relative to cyclopamine (times higher)” value is recorded as about 100 times and the “potency relative to cycloposine (3) (times weaker)” value came to 10 times.

For `CC1=C2C(=O)[C@H]3[C@@H](CC=C4C[C@@H](OC(=O)NCCNC(=O)CCc5ccccc5)CC[C@@]43C)[C@@H]2CC[C@]12O[C@@H]1C[C@H](C)CN[C@H]1[C@H]2C` [Compound 12, 3O-dihydrocinnamoylethylenediaminecarbamoyl jervine], the “IC50 relative to cyclopamine (times higher)” value is reported as about 100 times and the “potency relative to cycloposine (3) (times weaker)” value came out at 10 times. The compound also returned an IC50 under setting [1] of over 10000 nM.

For the compound `CC1=C2C[C@H]3[C@@H](CC=C4C[C@@H](O)CC[C@@]43C)[C@@H]2CC[C@]12O[C@@H]1C[C@H](C)CN(CCNC(=O)CCc3ccccc3)[C@H]1[C@H]2C` [Compound 18, N—(N′-Dihydrocinnamoyl aminoethyl)cyclopamine], the IC50 under setting [1] was over 100 nM.

Consider `CC1=C2C[C@H]3[C@@H](CC=C4CC(=O)CC[C@@]43C)[C@@H]2CC[C@]12O[C@@H]1C[C@H](C)CN(CCNC(=O)CCc3ccccc3)[C@H]1[C@H]2C` [Compound 19, 3-Keto, N—(N′-dihydrocinnamoylaminoethyl)cyclopamine], for which the “improvement of inhibitory activity by oxidation of the hydroxyl group to a ketone” value (“improvement of inhibitory activity” for short) is reported as “approximately two-fold”. This compound registered an IC50 under setting [1] of over 10 nM.

`CC1=C2C[C@H]3[C@@H](CC=C4CC(=O)CC[C@@]43C)[C@@H]2CC[C@]12O[C@@H]1C[C@H](C)CN(CCNC(=O)c3ccc(C(=O)c4ccccc4)cc3)[C@H]1[C@H]2C` [Compound 21, 3-Keto, N—(N′-(4-benzoylbenzoyl)aminoethyl)cyclopamine]: the “improvement of inhibitory activity” value was “approximately two-fold”. The IC50 under setting [1] was over 10 nM.

Turning to `CC1=C2C[C@H]3[C@@H](CC=C4C[C@@H](O)CC[C@@]43C)[C@@H]2CC[C@]12O[C@@H]1C[C@H](C)CN(CCNC(=O)CCCCCCCCCCCNC(=O)C(F)(F)F)[C@H]1[C@H]2C` [Compound 29, N—(N′—(N″-Trifluoroacetyl aminododecanoyl) aminoethyl)cyclopamine], the “effect of N-alkyl modification on ability to block Shh signaling” value (“effect of N-alkyl modification” for short) is reported as “do not significantly diminish” and the “effect of addition on inhibitory activity” value is “accentuate inhibitory activity”. The compound further registered an IC50 under setting [1] of over 100 nM.

Take `CCC(=O)NCCN1C[C@@H](C)C[C@H]2O[C@]3(CC[C@@H]4C(=C3C)C[C@H]3[C@H]4CC=C4C[C@@H](O)CC[C@@]43C)[C@H](C)[C@@H]21` [Compound 30, N—(N′-Propionyl aminoethyl)cyclopamine]: under setting [1], the IC50 is over 100 nM.

For the compound `CC1=C2C[C@H]3[C@@H](CC=C4C[C@@H](O)CC[C@@]43C)[C@@H]2CC[C@]12O[C@@H]1C[C@H](C)CN(CCNC(=O)CCCCCNC(=O)CCc3ccccc3)[C@H]1[C@H]2C` [Compound 33, N—(N′—(N″-Dihydrocinnamoyl aminocaproyl)aminoethyl)cyclopamine], the “effect of N-alkyl modification” value is reported as “do not significantly diminish” and the “effect of addition on inhibitory activity” value was “accentuate inhibitory activity”. The compound also yielded an IC50 under setting [2] of over 10 nM.

Regarding `CC1=C2C[C@H]3[C@@H](CC=C4CC(=O)CC[C@@]43C)[C@@H]2CC[C@]12O[C@@H]1C[C@H](C)CN(CCNC(=O)CCCCCNC(=O)CCc3ccccc3)[C@H]1[C@H]2C` [Compound 34, 3-Keto, N—(N′—(N″-dihydrocinnamoylaminocaproyl)aminoethyl)cyclopamine], the “potency relative to cyclopamine” value is on record as “ten-fold greater” and the “improvement of inhibitory activity” value is recorded as “approximately two-fold”. Moreover, the midpoint of inhibition (Mus musculus, NIH3T3, concentration for 50% inhibition of Sonic hedgehog induction), the IC50, lay at 30 nM. Under setting [1], the IC50 is over 10 nM.

As for `CC1=C2C[C@H]3[C@@H](CC=C4C[C@@H](O)CC[C@@]43C)[C@@H]2CC[C@]12O[C@@H]1C[C@H](C)CN(CCNC(=O)CCCCCNC(=O)CCCCC3SC[C@@H]4NC(=O)N[C@H]34)[C@H]1[C@H]2C` (stereo partly drawn) [Compound 40, N—(N′—(N″-Biotinoyl aminocaproyl)aminoethyl)cyclopamine], the “effect of N-alkyl modification” value is listed as “do not significantly diminish”. The compound also displayed a concentration for half-maximal inhibition (IC50) under setting [1] of over 100 nM.

On to `CC1=C2C[C@H]3[C@@H](CCC4=CC(=O)CC[C@@]43C)[C@@H]2CC[C@]12O[C@@H]1C[C@H](C)CN(CCNC(=O)CCCCCNC(=O)CCCCC3SC[C@@H]4NC(=O)N[C@H]34)[C@H]1[C@H]2C` (stereo partly drawn) [Compound 41, 3-Enone, N—(N′—(N″-Biotinoylaminocaproyl)aminoethyl)cyclopamine], for which the “effect of enone formation (C5-C6 olefin migrated to C4-C5) on potency” value was “does not appear to affect compound potency” and the “improvement of inhibitory activity” value is listed as “approximately two-fold”. The compound also had an IC50 under setting [1] of over 100 nM.

As for `CCC(=O)NCCCCCC(=O)NCCN1C[C@@H](C)C[C@H]2O[C@]3(CC[C@@H]4C(=C3C)C[C@H]3[C@H]4CC=C4C[C@@H](O)CC[C@@]43C)[C@H](C)[C@@H]21` [Compound 42, N—(N′—(N″-Propionyl aminocaproyl)aminoethyl)cyclopamine], the IC50 under setting [1] is over 100 nM.

On to `CC1=CC(C)=[N+]2C1=Cc1ccc(CCC(=O)NCCCCCC(=O)NCCN3C[C@@H](C)C[C@H]4O[C@]5(CC[C@@H]6C(=C5C)C[C@H]5[C@H]6CC=C6C[C@@H](O)CC[C@@]65C)[C@H](C)[C@@H]43)n1[B-]2(F)F` [Compound 43, N—(N′—(N″-BODIPY FL aminocaproyl)aminoethyl)cyclopamine], for which the “effect of N-alkyl modification” value is listed as “do not significantly diminish” and the “effect of addition on inhibitory activity” value is “accentuate inhibitory activity”. The IC50 under setting [2] is over 100 nM.

For the compound `CC(=O)CCC(=O)N[C@@H](Cc1ccc(C(=O)c2ccccc2)cc1)C(=O)NCCN1C[C@@H](C)C[C@H]2O[C@]3(CC[C@@H]4C(=C3C)CC3[C@H]4CC=C4C[C@@H](O)CC[C@@]43C)C(C)[C@@H]21` (stereo partly drawn) [Compound 50, N—(N′—(N″-Levulinoyl(4-benzoylphenylalaminoyl))aminoethyl)cyclopamine], the “effect of N-alkyl modification” value was “significantly abrogate biological activity”. The IC50 under setting [1] is over 1000 nM.

For `CC(=O)CCC(=O)N[C@@H](Cc1ccc(C(=O)c2ccccc2)cc1)C(=O)NCCN1C[C@@H](C)C[C@H]2O[C@]3(CC[C@@H]4C(=C3C)CC3[C@H]4CC=C4CC(=O)CC[C@@]43C)[C@H](C)[C@@H]21` (stereo partly drawn) [Compound 51, 3-Keto N—(N′—(N″-Levulinoyl(4-benzoylphenylalaminoyl))aminoethyl) cyclopamine], the “improvement of inhibitory activity” value is listed as “approximately two-fold”. Further, the IC50 under setting [1] is over 1000 nM.

For `CC1=C2C[C@H]3[C@@H](CC=C4C[C@@H](O)CC[C@@]43C)[C@@H]2CC[C@]12O[C@@H]1C[C@H](C)CN(CCNC(=O)C(CCCCNC(=O)CCCCCNC(=O)CCCC[C@@H]3SC[C@@H]4NC(=O)N[C@@H]43)NC(=O)c3ccc(C(=O)c4ccccc4)cc3)[C@H]1[C@H]2C` (stereo partly drawn) [Compound 58, N—(N′—(N″,N′″-(4-Benzoylbenzoyl)(N″″-biotinoylaminocaproyl)lysine)aminoethyl)cyclopamine], under setting [1], the IC50 is over 10000 nM.

With “N—(N′—(N″,N′″-(4-Benzoylbenzoyl) (N″″-digoxigenin 3-O-methylcarbonyl aminocaproyl)lysine)aminoethyl)cyclopamine [Compound 57]”, the IC50 under setting [2] was over 10000 nM.

Regarding “N—(N′—(N″-Azidoiodophenylpropionyl aminocaproyl)aminoethyl)cyclopamine [Compound 39]”, the “effect of N-alkyl modification” value is “do not significantly diminish” and the “effect of addition on inhibitory activity” value was “accentuate inhibitory activity”. Under setting [2], this compound showed an IC50 of over 100 nM.
